Measurements taken from ChEMBL document CHEMBL6134843, “HDAC11 Inhibition as a Potential Therapeutic Strategy for AML: Target Identification, Lead Discovery, Antitumor Potency, and Mechanism Investigation” (J Med Chem, 2025).
pIC50: −log10 of the molar value. Activity calls are given as the source filed them. The rule behind the calls is not given here.

Columns and labels:
[1] = Antitumor activity against mouse MLL-AF9 cells allografted in female C57BL/6 mouse model assessed as GFP positive leukemic cells in peripheral blood at 50 mg/kg, ip administered once daily for 26 days by FITC staining based analysis (reference value: 30.6 %); type: functional; conditions: time 26 day
[2] = Antitumor activity against mouse MLL-AF9 cells allografted in female C57BL/6 mouse model assessed as GFP positive leukemic cells in peripheral blood at 50 mg/kg, ip administered once daily for 32 days by FITC staining based analysis (reference value: 72.5 %); type: functional; conditions: time 32 day
OCI-AML-3 = assay: Induction of cell apoptosis in human OCI-AML-3 cells at 100 uM incubated for 48 hrs by Annexin V/DAPI staining based flow cytometry analysis; type: functional
U-937 [3] = assay: Antitumor activity against human U-937 cells assessed as cell growth inhibition incubated for 2 days by CCK-8 assay; conditions: U-937, 48 h
Histone deacetylase 11 = target: T1, Histone deacetylase 11 (Homo sapiens, UniProt Q96DB2); assay: Inhibition of full length human recombinant HDAC11 (1 to 347 end residues) expressed in Sf9 cells using AcetylETDKmyr-AMC as substrate preincubated with enzyme for 1 hr followed by substrate addition and measured after 30 mins by fluorescence analysis
T1 sequence (Q96DB2 whole entry): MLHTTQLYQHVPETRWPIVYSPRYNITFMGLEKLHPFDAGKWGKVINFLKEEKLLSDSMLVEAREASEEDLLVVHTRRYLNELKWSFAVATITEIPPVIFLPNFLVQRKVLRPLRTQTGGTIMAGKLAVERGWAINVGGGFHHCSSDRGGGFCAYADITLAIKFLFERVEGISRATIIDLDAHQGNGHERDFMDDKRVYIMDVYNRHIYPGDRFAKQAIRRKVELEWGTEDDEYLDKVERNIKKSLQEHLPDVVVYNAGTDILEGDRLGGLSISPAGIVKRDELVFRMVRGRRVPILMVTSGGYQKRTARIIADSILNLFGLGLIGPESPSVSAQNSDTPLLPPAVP

Histone deacetylase 1 = Histone deacetylase 1 (Homo sapiens, UniProt Q13547); assay: Inhibition of C-terminal 6xHis/FLAG-tagged full length human recombinant HDAC1 (1 to 482 end residues) expressed in Sf9 cells using Boc-Lys-(acetyl)-AMC as substrate preincubated with enzyme for 1 hr followed by substrate addition and measured after 30 mins by fluorescence analysis
Histone deacetylase 1, sequence (Q13547 whole entry): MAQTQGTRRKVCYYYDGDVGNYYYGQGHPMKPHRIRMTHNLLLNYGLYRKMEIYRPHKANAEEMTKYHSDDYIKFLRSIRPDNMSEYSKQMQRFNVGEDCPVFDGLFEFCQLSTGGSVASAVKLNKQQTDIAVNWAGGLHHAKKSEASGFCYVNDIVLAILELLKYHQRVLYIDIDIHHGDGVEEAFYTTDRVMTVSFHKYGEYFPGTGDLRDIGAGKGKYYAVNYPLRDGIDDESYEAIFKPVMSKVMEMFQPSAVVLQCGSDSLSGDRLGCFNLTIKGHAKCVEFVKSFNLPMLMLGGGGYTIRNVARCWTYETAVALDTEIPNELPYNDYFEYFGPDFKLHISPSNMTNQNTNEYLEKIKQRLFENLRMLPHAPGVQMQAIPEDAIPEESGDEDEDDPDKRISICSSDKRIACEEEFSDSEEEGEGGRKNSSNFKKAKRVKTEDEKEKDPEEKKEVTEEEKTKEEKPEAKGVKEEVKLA

OCI-AML2 [4] = assay: Induction of ferroptosis in human OCI-AML2 cells assessed as increase in ferrous ion accumulation at 5 uM incubated for 48 hrs by RhoNox-1 staining based flow cytometry analysis; type: functional, cell-based
[5] = target: T2, Histone deacetylase 11 (Homo sapiens) (UniProt Q96DB2); assay: Inhibition of HDAC11 in human U-937 cells assessed as increase in SHMT2 fatty acylation level in presence of Alk14 at 100 uM incubated for 6 hrs by Western blot analysis; type: cell-based
T2 sequence (whole entry): T1 sequence (Q96DB2 whole entry)

THP-1 = assay: Induction of cell apoptosis in human THP-1 cells at 100 uM incubated for 48 hrs by Annexin V/DAPI staining based flow cytometry analysis; type: functional
Histone deacetylase 8 = target: T3, Histone deacetylase 8 (Homo sapiens, UniProt Q9BY41); assay: Inhibition of C-terminal His-tagged full length human recombinant HDAC8 (1 to 377 end residues) expressed in Sf9 cells using Boc-Lys-(trifluoroacetyl)-AMC as substrate preincubated with enzyme for 1 hr followed by substrate addition and measured after 30 mins by fluorescence analysis
T3 sequence (Q9BY41 whole entry): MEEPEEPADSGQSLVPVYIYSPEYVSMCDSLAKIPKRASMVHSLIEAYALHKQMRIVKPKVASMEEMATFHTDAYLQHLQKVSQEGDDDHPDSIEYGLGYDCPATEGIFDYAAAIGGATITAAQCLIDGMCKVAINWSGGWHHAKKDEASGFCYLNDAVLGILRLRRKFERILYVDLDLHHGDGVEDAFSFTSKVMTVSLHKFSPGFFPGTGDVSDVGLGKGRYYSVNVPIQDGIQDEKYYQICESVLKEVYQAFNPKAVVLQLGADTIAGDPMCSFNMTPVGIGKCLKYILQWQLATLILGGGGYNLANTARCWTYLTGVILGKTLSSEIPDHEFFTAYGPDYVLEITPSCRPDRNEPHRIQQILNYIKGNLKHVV

U-937 [6] = assay: Induction of ferroptosis in human U-937 cells assessed as increase in lipid peroxidation accumulation at 100 uM incubated for 48 hrs by C11-BODIPY 581/591 staining based flow cytometry analysis; type: functional, cell-based
[7] = target: T4, Protein deacetylase HDAC6 (Homo sapiens, UniProt Q9UBN7); assay: Inhibition of N-terminal GST-tagged full length human recombinant HDAC6 (1 to 1215 end residues) expressed in Sf9 cells using Boc-Lys-(acetyl)-AMC as substrate preincubated with enzyme for 1 hr followed by substrate addition and measured after 30 mins by fluorescence analysis
T4 sequence (Q9UBN7 whole entry): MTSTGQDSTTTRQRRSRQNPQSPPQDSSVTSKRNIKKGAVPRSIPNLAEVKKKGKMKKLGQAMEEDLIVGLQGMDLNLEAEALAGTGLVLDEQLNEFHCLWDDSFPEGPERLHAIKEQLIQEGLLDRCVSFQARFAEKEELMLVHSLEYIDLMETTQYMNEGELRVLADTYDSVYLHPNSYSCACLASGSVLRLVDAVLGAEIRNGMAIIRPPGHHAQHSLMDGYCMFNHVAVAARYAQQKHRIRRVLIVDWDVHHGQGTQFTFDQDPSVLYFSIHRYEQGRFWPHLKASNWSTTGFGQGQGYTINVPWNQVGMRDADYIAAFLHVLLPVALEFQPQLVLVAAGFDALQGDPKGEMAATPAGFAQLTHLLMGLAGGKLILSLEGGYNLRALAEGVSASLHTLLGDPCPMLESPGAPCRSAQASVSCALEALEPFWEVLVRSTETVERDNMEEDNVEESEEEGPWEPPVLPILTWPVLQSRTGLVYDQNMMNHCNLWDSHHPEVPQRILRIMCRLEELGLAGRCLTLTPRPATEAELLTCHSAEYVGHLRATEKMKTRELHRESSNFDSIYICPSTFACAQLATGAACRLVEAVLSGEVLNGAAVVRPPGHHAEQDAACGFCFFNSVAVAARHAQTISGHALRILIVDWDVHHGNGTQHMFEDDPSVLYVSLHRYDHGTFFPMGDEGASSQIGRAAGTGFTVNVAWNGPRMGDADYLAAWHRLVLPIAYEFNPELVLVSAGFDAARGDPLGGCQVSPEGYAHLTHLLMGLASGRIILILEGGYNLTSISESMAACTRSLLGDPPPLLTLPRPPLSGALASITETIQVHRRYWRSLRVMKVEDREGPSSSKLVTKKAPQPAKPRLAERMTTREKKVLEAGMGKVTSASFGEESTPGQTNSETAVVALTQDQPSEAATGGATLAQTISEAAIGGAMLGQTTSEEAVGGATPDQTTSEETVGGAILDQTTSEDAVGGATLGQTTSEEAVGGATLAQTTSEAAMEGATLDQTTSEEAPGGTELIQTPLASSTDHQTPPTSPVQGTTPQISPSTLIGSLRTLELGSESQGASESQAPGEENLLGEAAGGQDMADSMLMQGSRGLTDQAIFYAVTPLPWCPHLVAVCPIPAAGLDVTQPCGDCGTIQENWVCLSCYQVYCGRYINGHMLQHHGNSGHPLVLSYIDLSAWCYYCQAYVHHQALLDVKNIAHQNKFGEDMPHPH

U-937 [8] = assay: Induction of ferroptosis in human U-937 cells assessed as increase in ferrous ion accumulation at 5 uM incubated for 48 hrs by RhoNox-1 staining based flow cytometry analysis; type: functional, cell-based
OCI-AML2 [9] = assay: Antiproliferative activity against human OCI-AML2 cells assessed as cell growth inhibition incubated for 2 days by CCK-8 assay; conditions: OCI-AML2, 48 h
Histone deacetylase 4 = Histone deacetylase 4 (Homo sapiens, UniProt P56524); assay: Inhibition of N-terminal GST-tagged C-terminal His-tagged human HDAC4 (627 to 1084 end residues) expressed in baculovirus expression system in Sf9 cells using Boc-Lys-(trifluoroacetyl)-AMC as substrate preincubated with enzyme for 1 hr followed by substrate addition and measured after 30 mins by fluorescence analysis
Histone deacetylase 4, sequence (P56524 whole entry): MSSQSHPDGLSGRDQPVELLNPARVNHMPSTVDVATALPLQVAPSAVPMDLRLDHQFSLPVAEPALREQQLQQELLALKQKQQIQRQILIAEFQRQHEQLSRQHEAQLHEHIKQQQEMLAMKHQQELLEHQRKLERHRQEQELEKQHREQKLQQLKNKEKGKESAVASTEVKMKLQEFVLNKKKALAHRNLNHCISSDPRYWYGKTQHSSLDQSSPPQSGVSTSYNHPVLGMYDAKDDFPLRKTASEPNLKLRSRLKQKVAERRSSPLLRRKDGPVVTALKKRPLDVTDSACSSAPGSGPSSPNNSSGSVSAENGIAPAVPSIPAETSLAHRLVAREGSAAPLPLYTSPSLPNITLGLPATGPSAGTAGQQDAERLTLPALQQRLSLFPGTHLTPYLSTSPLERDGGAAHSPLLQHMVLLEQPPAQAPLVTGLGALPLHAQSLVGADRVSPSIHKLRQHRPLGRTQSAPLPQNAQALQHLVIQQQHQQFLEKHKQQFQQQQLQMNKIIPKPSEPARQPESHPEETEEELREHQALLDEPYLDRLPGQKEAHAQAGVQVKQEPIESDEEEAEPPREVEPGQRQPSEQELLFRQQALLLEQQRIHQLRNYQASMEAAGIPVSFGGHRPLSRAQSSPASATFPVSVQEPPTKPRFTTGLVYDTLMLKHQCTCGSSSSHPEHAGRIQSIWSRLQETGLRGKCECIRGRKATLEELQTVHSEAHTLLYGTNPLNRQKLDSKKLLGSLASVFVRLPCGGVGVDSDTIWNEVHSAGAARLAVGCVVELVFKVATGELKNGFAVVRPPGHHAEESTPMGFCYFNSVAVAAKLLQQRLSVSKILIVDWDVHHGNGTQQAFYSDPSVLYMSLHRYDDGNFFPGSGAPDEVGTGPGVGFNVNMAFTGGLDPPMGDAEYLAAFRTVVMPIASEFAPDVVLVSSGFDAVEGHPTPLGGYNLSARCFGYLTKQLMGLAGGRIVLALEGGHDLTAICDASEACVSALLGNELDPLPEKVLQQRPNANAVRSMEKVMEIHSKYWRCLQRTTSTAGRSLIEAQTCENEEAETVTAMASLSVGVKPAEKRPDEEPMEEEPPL

U-937 [10] = assay: Induction of ferroptosis in human U-937 cells assessed as increase in ferrous ion accumulation at 100 uM incubated for 48 hrs by RhoNox-1 staining based flow cytometry analysis; type: functional, cell-based
OCI-AML2 [11] = assay: Induction of ferroptosis in human OCI-AML2 cells assessed as increase in ferrous ion accumulation at 100 uM incubated for 48 hrs by RhoNox-1 staining based flow cytometry analysis; type: functional, cell-based

| Structure (SMILES) | Activity [1] [%] | Activity [2] [%] | Activity (OCI-AML-3) | pIC50 (U-937 [3]) | pIC50 (Histone deacetylase 11) | pIC50 (Histone deacetylase 1) | Activity (OCI-AML2 [4]) | inhibition [5] | Activity (THP-1) | pIC50 (Histone deacetylase 8) | Activity (U-937 [6]) | pIC50 [7] | Activity (U-937 [8]) | pIC50 (OCI-AML2 [9]) | pIC50 (Histone deacetylase 4) | Activity (U-937 [10]) | Activity (OCI-AML2 [11]) |
| --- | --- | --- | --- | --- | --- | --- | --- | --- | --- | --- | --- | --- | --- | --- | --- | --- | --- |
| Nc1ccn([C@@H]2O[C@H](CO)[C@@H](O)[C@@H]2O)c(=O)n1 [CYTARABINE] | 5.81 | 13.2 |  |  |  |  |  |  |  |  |  |  |  |  |  |  |  |
| CCCCCCCCCCCCCCCCNNC(=O)c1cccs1 |  |  | Active | ~3.82 | 6.43 | 4.03 | Active | Active | Active | < 4.00 | Active | 4.11 | Active | ~3.82 | < 4.00 | Active | Active |
| O=C(NO)c1cccc2[nH]c(C#Cc3ccccc3)cc12 |  |  |  |  |  |  |  |  |  |  |  |  |  |  | < 4.00 |  |  |
